The values below come from PubChem BioAssay (NCI).

As usually defined, the TGI is the concentration giving total growth inhibition. A higher TGI goes with less potent growth arrest. Broadly, the GI50 is the concentration giving 50% growth inhibition.

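Interpolation was linear, between the two tested concentrations surrounding the appropriate level; five concentrations were tested over 48 hours in 96-well plates. Here, GI50 denotes the concentration required for 50% inhibition of growth. TGI marks complete inhibition of growth.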

Holding throughout (assay): DTP human tumour cell line panel, 48 h
In assay [1] the test system is SK-MEL-28 melanoma.
In assay [2] the test system is PC-3 prostate.
Assay [3] has as its system MALME-3M melanoma.
The subject of assay [4] is HOP-62 NSCLC.
Assay [5] concerns A549 NSCLC.
Assay [6] deals with HCT-116 colon.
Assay [7] has as its system SNB-75 CNS.
The test system of assay [8] is SK-MEL-2 melanoma.
The test system of assay [9] is DU-145 prostate.
Assay [10] deals with HOP-92 NSCLC.

As to `CN(C)Cc1cc(C(C)(C)C)cc(CNC2CCCCC2)c1O`, the TGI is over 100 µM in assay [1]; over 100 µM in assay [2]; 64 µM in assay [3]; over 100 µM in [4]; over 100 µM in assay [5]; 71.5 µM in assay [6]. The TGI was over 100 µM in [7], over 100 µM in assay [8], over 100 µM in assay [9] and 59.7 µM in assay [10].
On to `O=c1[nH]c(=S)c2cc3c(=S)[nH]c(=O)n(CCC(c4ccccc4)(c4ccccc4)c4ccccc4)c3nc2n1CCC(c1ccccc1)(c1ccccc1)c1ccccc1`, for which the TGI in assay [1], in assay [2], in [3], in assay [4], in assay [5] and in assay [6] was over 100 µM throughout. Also, the TGI in [7], in [8], in [9] and in assay [10] was over 100 µM each time.
In the case of `CCOP(=O)(CC1CC(O)(CNc2cc(Cl)nc(N)n2)C1)OCC` (stereo not given), the TGI in assay [1], in assay [2], in assay [3], in [4], in [5] and in assay [6] was over 100 µM in each case. For the same molecule, the concentration for total growth inhibition (TGI) in assay [7], in assay [8], in assay [9] and in assay [10] was over 100 µM each time.
Regarding `CCSCC(=O)N1CCc2c([nH]c3ccccc23)C1=O`, the TGI in assay [1], in [2], in assay [3], in assay [4], in assay [5] and in [6] was over 100 µM throughout. Also, the TGI in assay [7] is over 100 µM; in assay [8] it was over 100 µM; in assay [9] it was over 100 µM; in assay [10] it was 92.8 µM.
For the molecule `N#Cc1nc(C(F)(F)F)oc1N`, the TGI in assay [1], in assay [2], in [3], in [4], in assay [5] and in assay [6] was over 100 µM throughout. The TGI in assay [7], in assay [8], in assay [9] and in assay [10] was over 100 µM each time.
Regarding `O=c1c2ncn(C3CCCCO3)c2n(-c2ccccc2)c(=S)n1-c1ccccc1` (stereo not given), the TGI in assay [1] is over 100 µM; in [2] it was over 100 µM; in [3], over 100 µM; in [4], 29.9 µM; in [5], over 100 µM; in assay [6] it was over 100 µM. Also, the TGI in assay [7] was 20.7 µM; in assay [8], over 79.7 µM; in assay [9], over 100 µM; in assay [10] it was 31 µM.
On to `Cc1ccc2ccc(=O)oc2c1`, for which the TGI in assay [1], in assay [2], in [3], in assay [4], in assay [5] and in assay [6] was over 100 µM throughout. The TGI in [7], in assay [8], in [9] and in [10] was over 100 µM throughout.
For `COc1ccc(OC)c(C(=O)/C=C/c2cc(O)c(O)cc2F)c1`, the TGI is 35.8 µM in assay [1]; 17.1 µM in assay [2]; 27.4 µM in [3]; 29.2 µM in [4]; over 82.7 µM in [5]; 11.5 µM in assay [6]. In addition, the TGI in assay [7] is 28.2 µM; in assay [8], 9.51 µM; in assay [9], 15.1 µM; in assay [10], over 67 µM.
As for `O=c1[nH]nc(Cc2ccccc2)n1/N=C/c1ccc([N+](=O)[O-])o1`, the TGI in [1] is 17.6 µM; in assay [2], 20.9 µM; in assay [3] it was 3.21 µM; in assay [4], 22 µM; in assay [5], over 100 µM; in assay [6], 6.13 µM. Also, the TGI in [7] is 15 µM; in assay [8], 16 µM; in assay [9], 42.3 µM; in assay [10], 30.1 µM.
`Cc1ccc(S(=O)(=O)N(CC(O)c2ccccc2)c2ccccc2F)cc1` (stereo not given): the TGI was 33.1 µM in assay [1]; 32.2 µM in assay [2]; 34.1 µM in assay [3]; 33.8 µM in [4]; 41.4 µM in assay [5]; 26.4 µM in assay [6]. The TGI in assay [7] came to 30.3 µM; in [8] it was 32.1 µM; in assay [9] it was 32.2 µM; in [10], 22.9 µM.
Turning to `CC(=O)c1cc2c(s1)C(=O)c1scc(C(C)=O)c1C2=O`, the TGI stood at 1.59 µM in [1]; 1.53 µM in assay [2]; 1.9 µM in [3]; 1.97 µM in assay [4]; 2.71 µM in [5]; 1.12 µM in assay [6]. In addition, the TGI is 2.65 µM in assay [7], 1.3 µM in assay [8], 2.86 µM in [9] and 0.93 µM in assay [10].
Regarding `O=C(Nc1ccc(-n2cc(-c3ccncc3)c(-c3ccc(O)c(Cl)c3)n2)cc1)c1cc(Cl)cc(Cl)c1`, the GI50 is 3.19 µM in assay [1]; 1.96 µM in [2]; 2.66 µM in [3]; 2.87 µM in assay [4]; 2.86 µM in assay [5]; 1.57 µM in assay [6]. In addition, the GI50 is 1.35 µM in assay [7], 0.899 µM in [8], 2.17 µM in [9] and 1.28 µM in assay [10]. Further, the concentration for total growth inhibition (TGI) in [1], in assay [2], in assay [3], in [4], in assay [5] and in assay [6] was over 32.5 µM throughout. The TGI in assay [7] is over 32.5 µM; in assay [8], 2.94 µM; in [9], over 32.5 µM; in assay [10], over 32.5 µM.
In the case of `c1ccc2c(c1)CCN(C1=NCCO1)C2`, the TGI in assay [1], in assay [2], in [3], in [4], in assay [5] and in [6] was over 10 µM each time. For the same molecule, the TGI in assay [7], in assay [8], in assay [9] and in assay [10] was over 10 µM throughout.
Turning to `C/C=C1/CN2[C@@H](C3=C[C@@H]4[C@@H]5N(C3=O)c3ccccc3[C@@]53CCN5C/C(=C/C)[C@@H]4C[C@H]53)C[C@@]34c5ccccc5N5C(=O)CC=C([C@H]1C[C@H]23)[C@H]54`, the TGI in assay [1] is 3.91 µM; in assay [2], 9.72 µM; in [3], 12.5 µM; in [4], 17.5 µM; in assay [5] it was 15.3 µM; in assay [6], 9.07 µM. Besides, the TGI came out at 17.4 µM in assay [7], 11.6 µM in assay [8], 22.1 µM in assay [9] and 13.2 µM in [10].
Regarding `NC(CCl)=NC1CN2CCC1CC2` (stereo not given), the TGI in assay [1], in assay [2], in [3], in assay [4], in [5] and in [6] was over 100 µM throughout. The TGI in assay [7], in [8], in assay [9] and in assay [10] was over 100 µM throughout.
Regarding `CN(C)c1ccc(/C=N/n2c(-c3ccccc3)nc3ccccc3c2=O)cc1`, the TGI in assay [1], in [2], in assay [3], in [4], in [5] and in [6] was over 100 µM each time. In addition, the TGI in [7], in [8], in assay [9] and in assay [10] was over 100 µM in each case.
